Test results: PMC7604896, “Synthesis and Antiviral Properties of 1-Substituted 3-[ω-(4-Oxoquinazolin-4(3H)-yl)alkyl]uracil Derivatives” (Acta Naturae, 2020)
pEC50: −log10 of the molar value.

Experiments:
[1] = Cytotoxicity, inhibition of cell growth in HEL cell culture; type: cell-based; conditions: human; HEL cells; concentration reducing cell growth by 50%
[2] = test system: VZV Oka (TK+); test: microbe, parasite or virus in culture; type: cell-based, varicella zoster virus; conditions: Human alphaherpesvirus 3, HEL, read-out: Antiviral activity, EC50 VZV Oka (TK+)
Experimental: (§1) The compounds were evaluated against human cytomegalovirus (HCMV, strains AD-169 and Davis) and the varicella zoster virus (VZV, strains OKA and YS). The antiviral assays were based on the inhibition of virus-induced cytopathicity or plaque formation in human embryonic lung (HEL) fibroblasts. Confluent cell cultures in 96-well microplates were inoculated with 100 CCID50 of the virus (1 CCID50 being the virus dose to infect 50% of the cell culture) or 10 or 100 plaque-forming units (PFU) (for VZV and HCMV) in the presence of varied concentrations of the test compounds. Viral cytopathicity or plaque formation was recorded as soon as it reached completion in the control virus-infected cell cultures not treated with the test compounds.

[3] = test system: VZV 07-1 (TK-); test: microbe, parasite or virus in culture; type: cell-based, varicella zoster virus; conditions: Human alphaherpesvirus 3, HEL, read-out: Antiviral activity, EC50 VZV 07-1 (TK-)
[4] = test system: HEL cells; test: Cytotoxicity, alteration of cell morphology in HEL cell culture; type: cell-based, human; conditions: minimum cytotoxic concentration causing microscopically detectable alteration of cell morphology
[5] = test system: HCMV AD-169; test: Anti-HCMV assay (AD-169 strain), inhibition of virus-induced cytopathicity or plaque formation in HEL fibroblasts; type: cell-based, human cytomegalovirus; conditions: HEL cell culture; for pEC50: Human betaherpesvirus 5, AD169, concentration reducing virus plaque formation by 50%, read-out: Antiviral activity, EC50 HCMV AD-169; for Inhibitory properties against HCMV (in words): AD-169 and Davis strains
Experimental: as §1

[6] = test system: HCMV Davis; test: Anti-HCMV assay (Davis strain), inhibition of virus-induced cytopathicity or plaque formation in HEL fibroblasts; type: cell-based, human cytomegalovirus; conditions: Human betaherpesvirus 5; HEL cell culture; concentration reducing virus plaque formation by 50%; read-out: Antiviral activity, EC50 HCMV Davis
Experimental: as §1

Row | Structure (SMILES) | CC50 [1] [µM] | pEC50 [2] | pEC50 [3] | Cytotoxicity, Cell morphology MCC [4] [μM] | pEC50 [5] | pEC50 [6] | Inhibitory properties against HCMV (in words) [5] | melting point [°C]
1 | Nc1nc2c(ncn2COCCO)c(=O)[nH]1 [Acyclovir, reference compound] | > 100 |  |  |  |  |  |  | 
2 | O=c1[nH]c(=O)n([C@H]2C[C@H](O)[C@@H](CO)O2)cc1/C=C/Br [Brivudine, reference compound] | > 100 | 7.41 | 5.22 | > 300 |  |  |  | 
3 | Nc1ccn(C[C@@H](CO)OCP(=O)(O)O)c(=O)n1 [Cidofovir, reference compound] | 129 |  |  | 300 | 6.42 | 6.42 |  | 
4 | O=c1c2ccccc2ncn1CCn1c(=O)ccn(CCCOc2ccc(Br)cc2)c1=O [Compound 9, 1-[3-(4-Bromophenoxy)propyl]-3-[2-(4-oxoquinazolin-4(3H)-yl)ethyl]uracil] |  | < 4.00 | < 4.00 | 100 | < 4.00 | < 4.00 | complete loss of inhibitory properties | 178.5 to 179.5
5 | O=c1c2ccccc2ncn1CCn1c(=O)ccn(CCCCOc2ccc(Br)cc2)c1=O [Compound 10, 1-[4-(4-Bromophenoxy)butyl]-3-[2-(4-oxoquinazolin-4(3H)-yl)ethyl]uracil] |  | < 4.70 | < 4.00 | 20 | < 4.70 | < 4.00 | complete loss of inhibitory properties | 191 to 192
6 | O=c1c2ccccc2ncn1CCn1c(=O)ccn(CCCCCOc2ccc(Br)cc2)c1=O [Compound 11, 1-[5-(4-Bromophenoxy)pentyl]-3-[2-(4-oxoquinazolin-4(3H)-yl)ethyl]uracil] |  | < 4.70 | < 4.00 | 100 | < 4.70 | < 4.70 | complete loss of inhibitory properties | 174.5 to 176
7 | O=c1c2ccccc2ncn1CCn1c(=O)ccn(CCCCCCOc2ccc(Br)cc2)c1=O [Compound 12, 1-[6-(4-Bromophenoxy)hexyl]-3-[2-(4-oxoquinazolin-4(3H)-yl)ethyl]uracil] |  | < 4.00 | < 4.00 | 100 | < 4.00 | < 4.70 |  | 178.5 to 179.5
8 | O=c1c2ccccc2ncn1CCn1c(=O)ccn(CCCCCCCCOc2ccc(Br)cc2)c1=O [Compound 13, 1-[8-(4-Bromophenoxy)octyl]-3-[2-(4-oxoquinazolin-4(3H)-yl)ethyl]uracil] | 12.8 | < 4.00 | < 4.00 | > 100 | < 4.00 | < 4.00 |  | 171.5 to 173
9 | O=c1c2ccccc2ncn1CCn1c(=O)ccn(CCCCCCCCCCOc2ccc(Br)cc2)c1=O [Compound 14, 1-[10-(4-Bromophenoxy)decyl]-3-[2-(4-oxoquinazolin-4(3H)-yl)ethyl]uracil] | > 100 | < 4.00 | < 4.00 | > 100 | < 4.00 | < 4.00 |  | 161 to 162
10 | O=c1c2ccccc2ncn1CCn1c(=O)ccn(CCCCCCCCCCCCOc2ccc(Br)cc2)c1=O [Compound 15, 1-[12-(4-Bromophenoxy)dodecyl]-3-[2-(4-oxoquinazolin-4(3H)-yl)ethyl]uracil] | > 100 | < 4.00 | < 4.00 | ≥ 100 | < 4.00 | < 4.00 |  | 150 to 152
11 | O=c1c2ccc(Cl)cc2ncn1CCn1c(=O)ccn(CCCCCOc2ccc(Br)cc2)c1=O [Compound 16, 1-[5-(4-Bromophenoxy)pentyl]-3-[2-(7-chloro-4-oxoquinazolin-4(3H)-yl)ethyl]uracil] |  | < 4.70 | < 4.00 | 20 | < 4.70 | < 4.70 | complete loss of inhibitory properties | 154 to 155
12 | O=c1c2ccccc2ncn1CCCn1c(=O)ccn(CCCCCOc2ccc(Br)cc2)c1=O [Compound 17, 1-[5-(4-Bromophenoxy)pentyl]-3-[3-(4-oxoquinazolin-4(3H)-yl)propyl]uracil] | 1.81 | 4.54 | 4.54 | 20 | 5.14 | 5.28 |  | 103.5 to 104.5
13 | Cc1ccc2ncn(CCn3c(=O)ccn(CCCCCOc4ccc(Br)cc4)c3=O)c(=O)c2c1 [Compound 18, 1-[5-(4-Bromophenoxy)pentyl]-3-[2-(6-methyl-4-oxoquinazolin-4(3H)-yl)ethyl]uracil] | > 100 | < 4.00 | < 4.00 | > 100 | < 4.00 | < 4.00 | complete loss of inhibitory properties | 180 to 181.5
14 | Nc1nc(O)c2ncn(COC(CO)CO)c2n1 [Ganciclovir, reference compound] | 196 |  |  | 350 | 5.62 | 5.70 |  | 
